Assay results taken from article PMC6222781, “Structural Optimization of Foldamer-Dendrimer Conjugates as Multivalent Agents against the Toxic Effects of Amyloid Beta Oligomers” (Molecules : A Journal of Synthetic Chemistry and Natural …, 2018).

Legend:
acute hippocampal slices = assay: Ex vivo MTT tissue viability test on acute hippocampal slices treated with Aβ oligomers after oxygen-glucose deprivation; assay type: cell-based, Wistar rats; conditions: 4 h, Aβ oligomers 10 µM alone, untreated slices as control, mean ± SD, N = 4
Text: We have applied a rapid, reliable assay, which utilizes acute hippocampal slices for MTT measurements to test the short-term effect of toxic Aβ oligomers on the viability of the surviving cells in the tissue. Acute hippocampal brain slices can be maintained ex vivo only for a few hours, thus excluding the possibility of studying the long-term effects of neuroprotective compounds. Still, the combination of oxygen-glucose deprivation and treatment with Aβ oligomers makes this assay applicable on a short-term basis, which is otherwise impossible with convenient in vitro methods. The Aβ treatment combined with this short and mild oxygen-glucose deprivation provided a relevant ex vivo model for the aging brain and a standard MTT assay was used for the quantification of toxicity (Table S2). Treatment with Aβ oligomers in 10 µM concentration caused a significant decrease in tissue viability after 4 h (Figure 5, white column, 43.2 ± 1.6% of control). To test the neuroprotective effects of the compounds, slices were treated with Aβ in the presence of equimolar amounts of 1, 3–6, respectively. […]
Toxicity measurements were carried out using freshly prepared slices (N = 2 × 10 for one case) of the brains of 10 ± 1-week-old Wistar rats (4 animals, thickness of the brain slices: 400 µm). […] After the treatment, brain slice viability was measured using a specific MTT assay. […]

[1] = tested on: SH-SY5Y neuroblastoma cells; assay type: cell-based, human; conditions: 24 h, Aβ oligomers 10 µM alone, mean ± SEM, N = 4–8
Procedure: Real-time cell impedance measurement assay (xCELLigence) was utilized to test the effects of Aβ and the protective effect of the compounds 1, 3–5 on SH-SY5Y neuroblastoma cells. Cells were treated with Aβ oligomers in the concentration of 10 µM either alone or together with compounds 1, 3–5, which were applied in two different concentrations (5 or 10 μM). The cell index was monitored continuously for 48 h. Figure 6 represents the viability readouts after 24 h and 48 h (Table S3). Aβ caused a significant reduction in the viability after 24 h (red column, 85.1 ± 2.6% of control) reflecting the effects of an elongated treatment. […]
Figure 6 Cell viability readouts based on impedance analysis after treatments at different time points: (A) 24 h (B) 48 h. […]
Differentiated SH-SY5Y cells were grown in Dulbecco’s Modified Eagle’s Medium (DMEM) and F12-Ham’s culture medium at a 1:1 ratio supplemented with 10% (v/v) fetal bovine serum (FBS), 1% (v/v) L-glutamine, and 50 µg/mL gentamicin. […] Cells were cultured for 5–7 days and monitored every 15 min until the end of experiments. […] The resulting data was analyzed using real-time cell analyzer software (RTCA, Roche, Basel, Switzerland) and exported to Excel.

## Aβ oligomers: oligomers of amyloid β (1–42) prepared from Ser26 depsipeptide iso-Aβ (1–42)
Acute hippocampal slices
  tissue viability, Aβ oligomers alone: 43.2 ± 1.6 % of control
[1]
  viability, Aβ alone: 85.1 ± 2.6 % of control
